Test results from US20260152503A1, “SPIROBICYCLIC COMPOUNDS” (ACERAND THERAPEUTICS (HONG KONG) LIMITED, priority 2022, published 2026).

Columns and labels:
FGFR2 = biological target: T1, FGFR2 (Homo sapiens, UniProt P21802, K310R/N549K); assay: pERK potency assay (In Cell ELISA), AN3CA cells; format: cell-based; conditions: for IC50: pERK, AN3CA (FGFR2/k310R, N549K) cells, 3 hours; for FGFR1 IC50/FGFR2 IC50 / FGFR3 IC50/FGFR2 IC50: selectivity ratio, pERK potency; for FGFR1 IC50/FGFR2 IC50: FGFR2 relative to FGFR1; for FGFR3 IC50/FGFR2 IC50: FGFR2 relative to FGFR3
T1 construct: in FGFR aberrations of AN3CA (FGFR2/k310R, N549K); host or cells: AN3CA
T1 sequence (P21802 22-821 K310R/N549K): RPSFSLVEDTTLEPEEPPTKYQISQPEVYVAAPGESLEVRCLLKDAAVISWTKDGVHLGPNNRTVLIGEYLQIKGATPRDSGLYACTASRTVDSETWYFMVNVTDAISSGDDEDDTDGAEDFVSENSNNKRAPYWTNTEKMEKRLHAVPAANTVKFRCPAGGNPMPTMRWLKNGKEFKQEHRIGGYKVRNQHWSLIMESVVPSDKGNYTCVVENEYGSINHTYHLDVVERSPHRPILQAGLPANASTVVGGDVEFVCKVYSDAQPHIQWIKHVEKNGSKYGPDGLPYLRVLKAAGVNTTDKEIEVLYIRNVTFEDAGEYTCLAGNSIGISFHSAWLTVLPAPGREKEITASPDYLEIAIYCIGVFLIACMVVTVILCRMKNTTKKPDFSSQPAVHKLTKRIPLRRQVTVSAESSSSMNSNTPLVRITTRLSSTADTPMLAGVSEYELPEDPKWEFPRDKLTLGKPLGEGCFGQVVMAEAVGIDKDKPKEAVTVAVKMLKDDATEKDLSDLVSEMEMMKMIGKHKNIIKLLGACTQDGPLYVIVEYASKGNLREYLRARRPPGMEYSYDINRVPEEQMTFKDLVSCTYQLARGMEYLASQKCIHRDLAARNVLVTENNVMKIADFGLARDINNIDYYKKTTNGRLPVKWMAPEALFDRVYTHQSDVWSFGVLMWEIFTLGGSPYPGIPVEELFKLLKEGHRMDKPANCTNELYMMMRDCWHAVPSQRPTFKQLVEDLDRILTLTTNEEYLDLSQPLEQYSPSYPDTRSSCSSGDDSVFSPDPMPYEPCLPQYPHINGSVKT
Excerpt: (§1) The purpose of this assay is to measure the ability of test compounds to inhibit FGFR mediated downstream signaling cascades, i.e., ERK phosphorylation in cells with FGFR aberrations. FGFR aberrations become constitutively active and thus induces cascades of cellular signaling events that result in increased phosphorylation of ERK at Threonine 202 and Tyrosine 204 (pERK). The procedure called In Cell ELISA described below measures the level of cellular pERK in response to FGFR specific inhibitor compounds in FGFR aberrations of AN3CA (FGFR2/k310R, N549K), DMS114 (FGFR1 amplification), RT112 (FGFR3 overexpression/FGFR3-TACC3 fusion) and Hep3B (FGF19 amplification) cells. AN3CA, DMS114 and Hep3B cells are from ATCC. RT112 cells are from Sigma. DMS114 cells are grown and maintained using RPMI-1640 medium supplemented with 10% heat-inactivated fetal bovine serum. AN3CA, Hep3B and RT112 cells are grown and maintained using DMEM supplemented with 10% heat-inactivated fetal bovine serum. On the day before test compound addition, cells are plated in poly-D-lysine coated 96-well cell culture plates (Corning® BioCoat® Cat #356640) at 40000 cells/well/100 μL and grown overnight in a 37° C., 5% CO2 incubator. Test compounds are prepared with 4-fold serial dilutions in DMSO, with a top concentration of 10 μM. On the day of the assay, 50 μL of test compound diluted in media was added to each well of cell culture plate with the final concentration of compounds spanning from 0.000038 μM to 10 μM. After compound addition, cells are incubated for 3 hours at 37° C., 5% CO2 and then the culture medium is removed. Cells are fixed with 4% formaldehyde in phosphate-buffered saline (PBS) and incubated at RT for 20 min. The plate is then washed three times with PBST (PBS with 0.05% tween-20), followed by the incubation with 100 μL of pre-cooled methanol at −20° C. for 20 min. After incubation, methanol is removed, and the plate is washed once with PBST. Cells are permeabilized with 100 µL/well of 0.1% Triton X-100 in PBS at RT for 20 min and then quenched with quenching buffer (PBST containing 1% H2O2 and 0.1% sodium azide) for 20 min at RT with gentle shaking. After washing once with PBST, blocking buffer (250 ul/well, Pierce™ Protein-Free-PBS Blocking Buffer, Cat #37572) was then added to the cells for 1-h incubation at RT, followed by anti-pERK antibody (cell signaling, 1:1000 dilution in 5% BSA in PBST) incubation overnight at 4° C. and secondary antibody-HRP (Jackson immunoresearch, 1:3000 dilution in 5% BSA in PBST) incubation at RT for 1 h. PBST wash is carried out after each step three times. Before the addition of the substrate (Advansta ELISABright), the plate is washed with PBS twice to remove detergent residues. Cellular pERK level is determined using the microplate reader (Biotek Synergy H1) to detect the chemiluminescence signal. IC50 is determined by fitting a 4-parameter sigmoidal concentration-response model. FGFR wild type cells (H1975, PC-9 and AGS) are used to serve as negative control (FGFR selectivity) with the same assay procedures described above.

FGFR1 = biological target: T2, FGFR1 (Homo sapiens, UniProt P11362); assay: pERK potency assay (In Cell ELISA), DMS114 cells; format: cell-based; conditions: DMS114 (FGFR1 amplification) cells, 3 hours
T2 construct: DMS114 (FGFR1 amplification); host or cells: DMS114
T2 sequence (P11362 22-822): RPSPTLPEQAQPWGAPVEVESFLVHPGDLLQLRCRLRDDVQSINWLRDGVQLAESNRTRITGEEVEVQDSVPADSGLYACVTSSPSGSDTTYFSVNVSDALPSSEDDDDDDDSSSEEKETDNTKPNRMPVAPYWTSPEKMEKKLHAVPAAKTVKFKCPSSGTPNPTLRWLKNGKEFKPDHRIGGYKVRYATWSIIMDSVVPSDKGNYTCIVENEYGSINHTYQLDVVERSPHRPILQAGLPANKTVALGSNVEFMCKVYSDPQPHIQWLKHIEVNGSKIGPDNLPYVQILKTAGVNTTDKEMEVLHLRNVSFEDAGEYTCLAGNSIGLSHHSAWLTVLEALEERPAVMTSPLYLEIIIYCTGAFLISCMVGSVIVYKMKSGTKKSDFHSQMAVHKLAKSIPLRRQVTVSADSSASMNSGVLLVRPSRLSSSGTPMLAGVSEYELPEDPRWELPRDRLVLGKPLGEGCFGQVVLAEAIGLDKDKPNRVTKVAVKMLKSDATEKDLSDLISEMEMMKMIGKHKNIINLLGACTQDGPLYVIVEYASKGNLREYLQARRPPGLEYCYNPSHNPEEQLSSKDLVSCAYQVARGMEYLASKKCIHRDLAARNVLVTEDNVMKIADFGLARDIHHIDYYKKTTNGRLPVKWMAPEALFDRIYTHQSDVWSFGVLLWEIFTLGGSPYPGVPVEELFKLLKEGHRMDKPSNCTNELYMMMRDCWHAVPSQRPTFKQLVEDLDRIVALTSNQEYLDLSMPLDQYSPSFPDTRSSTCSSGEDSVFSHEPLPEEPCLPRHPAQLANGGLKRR
Excerpt: as §1

FGFR3 = biological target: T3, FGFR3 (Homo sapiens, UniProt P22607); assay: pERK potency assay (In Cell ELISA), RT112 cells; format: cell-based; conditions: RT112 (FGFR3 overexpression/FGFR3-TACC3 fusion) cells, 3 hours
T3 construct: RT112 (FGFR3 overexpression/FGFR3-TACC3 fusion); host or cells: RT112; the other entry of the earlier key: TACC3 (Q9Y6A5, Transforming acidic coiled-coil-containing protein 3)
Excerpt: as §1

Ba/F3 FGFR2-N549K = biological target: T4, Ba/F3 FGFR2-N549K (Homo sapiens, UniProt P21802, N549K, cells depend on it); assay: 2D cell proliferation assay, Ba/F3 FGFR2-N549K; format: cell-based, mouse; conditions: 96 hours, CTG, read-out: Cell Line, IC50 Ba/F3 FGFR2-N549K
T4 construct: fused on or other part: Q9H694 (Protein bicaudal C homolog 1)
T4 sequence (P21802 whole entry N549K, the tested form may be a part): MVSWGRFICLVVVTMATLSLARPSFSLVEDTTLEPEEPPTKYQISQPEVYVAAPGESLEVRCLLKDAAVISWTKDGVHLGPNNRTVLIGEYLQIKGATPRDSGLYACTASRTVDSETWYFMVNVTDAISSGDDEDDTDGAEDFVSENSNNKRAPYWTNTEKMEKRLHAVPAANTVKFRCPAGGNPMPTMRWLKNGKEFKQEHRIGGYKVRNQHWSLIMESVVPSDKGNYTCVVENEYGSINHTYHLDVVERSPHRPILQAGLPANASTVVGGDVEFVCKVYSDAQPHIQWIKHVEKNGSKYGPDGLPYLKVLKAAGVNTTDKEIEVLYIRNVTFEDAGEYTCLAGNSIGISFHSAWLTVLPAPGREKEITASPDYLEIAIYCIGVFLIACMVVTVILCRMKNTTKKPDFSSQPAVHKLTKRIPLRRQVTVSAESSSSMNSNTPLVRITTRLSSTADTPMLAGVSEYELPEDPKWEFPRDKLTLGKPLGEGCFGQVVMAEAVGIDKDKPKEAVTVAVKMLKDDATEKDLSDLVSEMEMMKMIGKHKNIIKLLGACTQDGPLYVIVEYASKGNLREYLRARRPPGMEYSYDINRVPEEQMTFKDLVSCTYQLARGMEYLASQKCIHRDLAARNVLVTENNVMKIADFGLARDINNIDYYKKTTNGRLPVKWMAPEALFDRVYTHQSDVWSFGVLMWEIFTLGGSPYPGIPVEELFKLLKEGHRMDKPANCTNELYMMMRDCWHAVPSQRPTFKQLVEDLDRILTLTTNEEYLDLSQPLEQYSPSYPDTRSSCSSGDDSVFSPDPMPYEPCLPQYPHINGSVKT
Description: (§2) Low IC50 values are indicative of the high potency of the FGFR inhibitor compounds in this assay selling. […] Cell proliferation assays are performed in two-dimensional (2D)) anchorage-dependent conditions in 96 well plates (Corning® Black/Clear flat Bottom, Cat #3603) with the following cell lines: • Ba/F3 FGFR2-BICC1 (human […]): Mouse Ba/F3 cell line stably expressed exogenous human FGFR2-BICC1 fusion gene bearing V546F mutation in FGFR2 Ba/F3; • FGFR2-BICC1 (human FGFR2/[…]): Mouse Ba/F3 cell line stably expressed exogenous human FGFR2-BICC1 fusion gene bearing N549K mutation in FGFR2; • Snu-16: human gastric cancer cell with FGFR2 amplification; • KATO III: human gastric cancer cell with FGFR2 amplification; • AN3CA: Human endometrial cancer with FGFR2 mutation (k310R, N549K); • MFM-223: Human breast cancer with FGFR1/2 amplification; • MFE-296: Human endometrial cancer with FGFR2 mutation (N549K); • MFE-280: Human endometrial cancer with FGFR2 mutation ([…]); • NCI-H1581: human non-small cell lung cancer with FGFR1 amplification; • KG-1a: Acute myelogenous leukemia with FGFR1OP2-FGFR1 translocation; • DMS114: human small cell carcinoma of the lung with FGFR1 amplification; • RT112: human bladder cancer with FGFR3 overexpression/FGFR3-TACC3 fusion; • SW780: human bladder cancer with FGFR3 overexpression/FGFR3-BALAP2L1 fusion; • Hep3B: Liver cancer with FGF19 amplification (FGFR4 ligand); • AGS: Human gastric adenocarcinoma with Kras G12D mutation and FGFR wild type; • PC-9: human non-small cell lung cancer (NSCLC) with wild-type FGFR and an EGFR del19 mutation; or • H1975: human non-small cell lung cancer (NSCLC) with wild-type FGFR and EGFR L858R/T790M mutation.
(§3) Cell lines are purchased from the American Type Culture Collection (ATCC) or Sigma. All cell lines are maintained in RPMI-1640 or DMEM supplemented with 10% heat-inactivated fetal bovine serum.
(§4) Cells growing in the log phase are detached with Gibco™ TrypLE™ Express Enzyme and plated in 96 well plate at 3000 to 5000 cells/well in 100 μl of media. After overnight incubation at 37° C., 5% CO2 incubator, cells are treated with compounds (50 uL/well) at the final concentrations spanning from 0.000038 uM to 10 μM (4-fold serial dilution for total of 10 points). Cells are incubated at 37° C., 5% CO2, and 95% humidity incubator for 96 hours. At the end of incubation 2D CTG reagent from Promega was added to each well according to vendors recommendation and mixed for 10 min in dark. The luminescence signals are determined with a Biotek™ plate reader. Data is fitted using a sigmoidal curve analysis program (GraphPad Prism®) with variable hill slope and IC50 is determined.

Ba/F3 FGFR2-V564F = biological target: T5, Ba/F3 FGFR2-V564F (Homo sapiens, UniProt P21802, V564F, cells depend on it); assay: 2D cell proliferation assay, Ba/F3 FGFR2-V564F; format: cell-based, mouse; conditions: 96 hours, CTG, read-out: Cell Line, IC50 Ba/F3 FGFR2-V564F
T5 construct: fused on or other part: Q9H694 (Protein bicaudal C homolog 1)
T5 sequence (P21802 whole entry V564F, the tested form may be a part): as the sequence (P21802 whole entry N549K, the tested form may be a part) above, with K549N, V564F counted along it
Description: as §2, §3, §4

IC50 (FGFR2) [µM]	IC50 (FGFR1) [µM]	IC50 (FGFR3) [µM]	GI50 (Ba/F3 FGFR2-N549K) [µM]	GI50 (Ba/F3 FGFR2-V564F) [µM]	Compound	FGFR1 IC50/FGFR2 IC50 (FGFR2)	FGFR3 IC50/FGFR2 IC50 (FGFR2)
≤ 0.001	> 0.1	> 0.1	0.001 to 0.01	≤ 0.001	C=CC(=O)N1CCC2(CC=C(c3c(-c4ncc(OC)cn4)c4c(N)ncnc4n3C)CC2)CC1 [Example 43, 1-(9-(4-amino-5-(5-methoxypyrimidin-2-yl)-7-methyl-7H-pyrrolo[2,3-d]pyrimidin-6-yl)-3-azaspiro[5.5]undec-8-en-3-yl)prop-2-en-1-one]	H (a selectivity ratio greater than 500 but less than or equal to 1000)	J (a selectivity ratio greater than 2000)
0.001 to 0.01	> 0.1	> 0.1	0.001 to 0.01	≤ 0.001	C=CC(=O)N1CCC2(CC=C(c3c(-c4ncc(F)cn4)c4c(N)ncnc4n3C)CC2)CC1 [Example 44, 1-(9-(4-amino-5-(5-fluoropyrimidin-2-yl)-7-methyl-7H-pyrrolo[2,3-d]pyrimidin-6-yl)-3-azaspiro[5.5]undec-8-en-3-yl)prop-2-en-1-one]	H (a selectivity ratio greater than 500 but less than or equal to 1000)	J (a selectivity ratio greater than 2000)
0.001 to 0.01	> 0.1	> 0.1	–	–	C=CC(=O)N1CCC2(CC=C(c3c(-c4ncc5c(n4)CCO5)c4c(N)ncnc4n3C)CC2)CC1 [Example 48, 1-(9-(4-amino-5-(6,7-dihydrofuro[3,2-d]pyrimidin-2-yl)-7-methyl-7H-pyrrolo[2,3-d]pyrimidin-6-yl)-3-azaspiro[5.5]undec-8-en-3-yl)prop-2-en-1-one]	H (a selectivity ratio greater than 500 but less than or equal to 1000)	J (a selectivity ratio greater than 2000)
0.03 to 0.1	> 0.1	> 0.1	–	–	C=CC(=O)N1CCC2(CC=C(c3c(-c4ncccc4F)c4c(N)ncnc4n3C)CC2)CC1 [Example 49, 1-(9-(4-amino-5-(3-fluoropyridin-2-yl)-7-methyl-7H-pyrrolo[2,3-d]pyrimidin-6-yl)-3-azaspiro[5.5]undec-8-en-3-yl)prop-2-en-1-one]	G (a selectivity ratio greater than 150 but less than or equal to 500)	G (a selectivity ratio greater than 150 but less than or equal to 500)
> 0.1	> 0.1	> 0.1	–	–	C=CC(=O)N1CCC2(CC=C(c3c(-c4ncco4)c4c(N)ncnc4n3C)CC2)CC1 [Example 53, 1-(9-(4-amino-7-methyl-5-(oxazol-2-yl)-7H-pyrrolo[2,3-d]pyrimidin-6-yl)-3-azaspiro[5.5]undec-8-en-3-yl)prop-2-en-1-one]	–	–
0.001 to 0.01	> 0.1	> 0.1	–	–	C=CC(=O)N1CCC2(CC=C(c3c(-c4ncccn4)c4c(N)ncnc4n3CCO)CC2)CC1 [Example 54, 1-(9-(4-amino-7-(2-hydroxyethyl)-5-(pyrimidin-2-yl)-7H-pyrrolo[2,3-d]pyrimidin-6-yl)-3-azaspiro[5.5]undec-8-en-3-yl)prop-2-en-1-one]	F (a selectivity ratio greater than 50 but less than or equal to 150)	G (a selectivity ratio greater than 150 but less than or equal to 500)
≤ 0.001	0.01 to 0.03	0.03 to 0.1	–	–	C=CC(=O)N1CCC2(CC=C(c3c(C4COC4)c4c(N)ncnc4n3C)CC2)CC1 [Example 55, 1-(9-(4-amino-7-methyl-5-(oxetan-3-yl)-7H-pyrrolo[2,3-d]pyrimidin-6-yl)-3-azaspiro[5.5]undec-8-en-3-yl)prop-2-en-1-one]	–	F (a selectivity ratio greater than 50 but less than or equal to 150)
0.01 to 0.03	> 0.1	> 0.1	–	–	C=CC(=O)N1CCC2(CC=C(c3c(-c4ccncn4)c4c(N)ncnc4n3C)CC2)CC1 [Example 60, 1-(9-(4-amino-7-methyl-5-(pyrimidin-4-yl)-7H-pyrrolo[2,3-d]pyrimidin-6-yl)-3-azaspiro[5.5]undec-8-en-3-yl)prop-2-en-1-one]	–	F (a selectivity ratio greater than 50 but less than or equal to 150)
0.01 to 0.03	> 0.1	> 0.1	–	–	C=CC(=O)N1CCC2(CC=C(c3c(-c4cccnn4)c4c(N)ncnc4n3C)CC2)CC1 [Example 61, 1-(9-(4-amino-7-methyl-5-(pyridazin-3-yl)-7H-pyrrolo[2,3-d]pyrimidin-6-yl)-3-azaspiro[5.5]undec-8-en-3-yl)prop-2-en-1-one]	G (a selectivity ratio greater than 150 but less than or equal to 500)	G (a selectivity ratio greater than 150 but less than or equal to 500)
